Assay results taken from article PMC6731595, “The anti-parasitic agent suramin and several of its analogues are inhibitors of the DNA binding protein Mcm10” (Open Biology, 2019).
Counter-ions that a name gives are not always drawn.

Experiments:
[1] = biological target: T1, human Mcm10 internal domain (hMcm10-ID) (Homo sapiens, UniProt Q7L590); test: Fluorescence polarization competition assay, displacement of 5′-6FAM 10-mer ssDNA probe from hMcm10-ID; assay type: binding; conditions: mean ± s.e.m., n ≥ 3; hMcm10-ID 1 μM, probe 12.5 nM
T1 construct: hMcm10-ID (residues 237 to 436) were expressed in E. coli strain BL21(DE3); 6xHis (HRV 3C site) (N, cleaved yes); made in house; host or cells: E. coli BL21(DE3)
T1 sequence (Q7L590 237-436): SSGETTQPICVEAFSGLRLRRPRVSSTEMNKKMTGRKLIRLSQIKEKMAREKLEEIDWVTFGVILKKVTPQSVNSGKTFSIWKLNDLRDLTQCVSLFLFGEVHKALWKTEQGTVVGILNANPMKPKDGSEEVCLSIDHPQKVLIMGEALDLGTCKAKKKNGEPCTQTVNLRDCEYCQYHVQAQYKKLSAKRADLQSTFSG
Method: A fluorescence polarization (FP) HTS assay was established to detect inhibitors of the binding of the 5′-6FAM 10-mer oligo probe to Mcm10. Test compounds dissolved in DMSO were added to 384-well plates (Corning 4514) using an Echo 550 acoustic dispenser (final DMSO 0.1%) to achieve a final single point screening concentration of 10 µM. Then 10 µl of 2× Xenopus internal domain Mcm10 (xMcm10-ID, final concentration 2 µM) in binding buffer (20 mM Tris HCl, 100 mM NaCl, 5% glycerol, and 0.01% triton, pH 7.5) was added using the Combi nL Multidrop dispenser. Finally, 10 µl of 2× 5′-6FAM DNA (final 12.5 nM) in binding buffer was added using the Multidrop. DMSO (0.1%, high signal) and probe only (low signal) controls were included on every plate. Plates were mixed for 2 min, incubated for 60 min at RT in the dark, and read on a CLARIOstar multimode plate reader (excitation: 482-16, emission: 530-40, dichroic filter: LP504).
The LOPAC pilot screen identified the sulfhydryl reagent 4-chloromercuribenzoic acid as an inhibitor in the fluorescence polarization (FP) assay. As there was no known Mcm10 inhibitor, 4-chloromercuribenzoic acid (30 μM) was used as a positive control on initial screening plates. Following the discovery of suramin as a Mcm10 inhibitor, suramin (7 μM) was used as a positive control on subsequent screening plates. To confirm activity, screening hits were tested in dose response experiments (8 concentrations in duplicate) using xMcm10-ID. Similar dose response experiments were conducted with suramin and its analogs to confirm activity for hMcm10-ID (1 μM) and xMcm10-FL (2 μM) and to determine selectivity relative to RPA70AB (0.4 μM). Saturation experiments for each protein were conducted using increasing concentrations of protein with a fixed probe concentration (12.5 nM). FP was measured in mP units, and ∆mP values for each well were calculated as the difference between the measured mP and the average of the “probe only” controls. […] The parallel and perpendicular mP values were also used to calculate total fluorescence intensity (TFI) determined by the sum of parallel mP + (2 x perpendicular mP). TFI was used to detect fluorescence interference by compounds [1]. […] IC50 values were calculated using the four parameter logistic equation in Prism 6.0 (GraphPad). Ki values were obtained using an online Ki calculator according to the equations of Nikolovska-Coleska (http://sw16.im.med.umich.edu/soft-ware/calc_ki/). KD values were calculated using the one site or two site binding equations in Prism 6.0 (GraphPad).

[2] = biological target: T2, hMcm10-ID (Homo sapiens, UniProt Q7L590); test: ABA injection SPR competition experiment with NF023 on hMcm10-ID; assay type: binding; conditions: competitor at 1× KD with NF023 at 10× KD (50 μM)
T2 construct: hMcm10-ID (residues 237 to 436) were expressed in E. coli strain BL21(DE3); 6xHis (HRV 3C site) (N, cleaved yes); made in house; host or cells: E. coli BL21(DE3)
T2 sequence (Q7L590 237-436): T1 sequence (Q7L590 237-436)
Method: To explore this possibility, competition-based SPR experiments were conducted using the ABA injection method to determine if the slow binder iso-PPADS competes with the fast kinetic compound NF023 (figure 4). ABA injection allows solution A (NF023 at 10× its KD) to be injected over the surface with solution B (NF023 + competitor at 1× KD) in the same cycle. Competitive binding should result in little or no change in binding response between the A and B injections, whereas non-competitive binders are expected to produce an additive binding response.
For ABA competition SPR experiments, the CM5 chip surface was prepared as described in Materials and Methods. Solution A was prepared with 50 μM NF023 in running buffer while solution B was prepared with the competitor near its KD value (NF023 = 5 μM, suramin = 0.5 μM, and iso-PPADS = 30 μM) ± 50 μM NF023 in running buffer. Data were collected at a rate of 40 Hz and analyzed with the Biacore S200 Evaluation Software. For these experiments, hMcm10-ID was immobilized to the chip surface and NF023 at a concentration 10-fold higher than its KD. A running buffer control was performed to establish the baseline of the experiment. When buffer and NF023 were injected as solution B, there was a small decrease in RU due to slight buffer mismatch effects (Figure 5a). […] NF023, suramin, and iso-PPADS were chosen as competitors to be tested at concentrations equal to their respective KD values as determined by SPR.

SMILES	Ki [1] [µM]	competition with NF023 for binding to hMcm10-ID (ABA SPR) [2]
Cc1nc(/N=N/c2cc(S(=O)(=O)O)ccc2S(=O)(=O)O)c(COP(=O)(O)O)c(C=O)c1O [iso-PPADS, pyridoxalphosphate-6-azophenyl-2’, 5’-disulfonic acid tetrasodium salt]	18 ± 2	neither compound showed additive binding
Cc1nc(/N=N/c2ccc(S(=O)(=O)O)cc2S(=O)(=O)O)c(COP(=O)(O)O)c(C=O)c1O [PPADS, pyridoxalphosphate-6-azophenyl-2’, 4’-disulfonic acid tetrasodium salt]	17 ± 1	
Cc1ccc(C(=O)Nc2ccc(S(=O)(=O)O)c3cc(S(=O)(=O)O)cc(S(=O)(=O)O)c23)cc1NC(=O)c1cccc(NC(=O)Nc2cccc(C(=O)Nc3cc(C(=O)Nc4ccc(S(=O)(=O)O)c5cc(S(=O)(=O)O)cc(S(=O)(=O)O)c45)ccc3C)c2)c1 [suramin, suramin sodium salt]	0.83 ± 0.07	neither compound showed additive binding

Continued, in another order:

Ki [1] [µM]	SMILES	competition with NF023 for binding to hMcm10-ID (ABA SPR) [2]
0.17 ± 0.02	O=C(Nc1cccc(C(=O)Nc2cc(C(=O)Nc3ccc(S(=O)(=O)O)c4cc(S(=O)(=O)O)cc(S(=O)(=O)O)c34)ccc2F)c1)Nc1cccc(C(=O)Nc2cc(C(=O)Nc3ccc(S(=O)(=O)O)c4cc(S(=O)(=O)O)cc(S(=O)(=O)O)c34)ccc2F)c1 [NF157]	
1.8 ± 0.2	O=C(Nc1cccc(C(=O)Nc2ccc(S(=O)(=O)O)c3cc(S(=O)(=O)O)cc(S(=O)(=O)O)c23)c1)Nc1cccc(C(=O)Nc2ccc(S(=O)(=O)O)c3cc(S(=O)(=O)O)cc(S(=O)(=O)O)c23)c1 [NF023]	consistent with a competitive interaction
